Data on 53 compounds can be found in US12448373B2, “Azetidinyl-acetamides as CXCR7 inhibitors” (CHEMOCENTRYX, INC., priority 2021, dated 2025).

T1 sequence (P25106 whole entry): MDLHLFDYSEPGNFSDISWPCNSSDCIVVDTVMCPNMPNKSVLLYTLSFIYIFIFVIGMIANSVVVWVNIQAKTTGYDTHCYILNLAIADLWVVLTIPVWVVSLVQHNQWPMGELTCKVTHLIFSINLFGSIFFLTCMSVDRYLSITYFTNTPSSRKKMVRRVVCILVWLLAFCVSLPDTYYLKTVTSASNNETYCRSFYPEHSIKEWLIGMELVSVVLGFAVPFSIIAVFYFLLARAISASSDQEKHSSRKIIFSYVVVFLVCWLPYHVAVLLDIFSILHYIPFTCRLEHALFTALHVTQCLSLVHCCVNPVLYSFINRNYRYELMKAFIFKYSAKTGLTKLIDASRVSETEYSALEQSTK

This experiment has as its target T1, CXCR7 (Homo sapiens, UniProt P25106).
T1 construct: expressed in transfected cells; host or cells: CHO cells (CHO-CXCR7), transgenes maintained with Hygromycin B and G418
The experiment is described as follows: CXCR7 β-arrestin recruitment assay in CHO-CXCR7 cells (ProLink/EA β-galactosidase complementation), induced by human SDF-1a. It is filed as cell-based. The note with it: assay buffer, SDF-1a at EC50 concentration. Put shortly:
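SDF-1α-induced β-arrestin recruitment was measured by enzyme-fragment complementation (ProLink-CXCR7 with β-arrestin-EA) in stable CHO cells. Agonist was dosed at its EC50, determined the same day, alongside serially diluted compound for 1.5 h at 37 °C. Fluorogenic galactoside substrate (0.4 mM, 30 min) was read at 360/465 nm, with IC50 from 3-parameter nonlinear regression.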
For orientation: Recruitment of arrestin is a read-out of receptor activation apart from second messengers.
Compound `COc1cccc(C(C)(C)NC(=O)CC2(NC(=O)c3cc(-c4ccc(F)cc4F)on3)CN([C@H]3CC[C@@](C)(O)CC3)C2)c1F` [Example 1.195] yielded an IC50 of 0.005 to 0.1 µM.

`COc1cccc(C(C)(C)NC(=O)CC2(NC(=O)c3cc(-c4ccc(F)cc4F)on3)CN([C@H]3CC[C@](C)(O)CC3)C2)c1F` [Example 1.196] showed a concentration for half-maximal inhibition (IC50) of 0.1 to 1 µM. For the compound `CC(C)(NC(=O)CC1(NC(=O)c2cc(-c3ccc(F)cc3F)on2)CN([C@H]2CC[C@@](C)(O)CC2)C1)c1cccc(OC(F)(F)F)c1` [Example 1.197], the IC50 is under 0.005 µM.

Regarding `CC(C)(NC(=O)CC1(NC(=O)c2cc(-c3ccc(F)cc3F)on2)CN([C@H]2CC[C@](C)(O)CC2)C1)c1cccc(OC(F)(F)F)c1` [Example 1.198], the IC50 was 0.005 to 0.1 µM. Next, `CC(C)(NC(=O)CC1(NC(=O)c2cc(-c3ccc(F)cc3F)on2)CN([C@H]2CC[C@](C)(O)CC2)C1)c1cccc(C(F)(F)F)c1` [Example 1.199]: 0.005 to 0.1 µM; `COc1ccnc(C(C)(C)NC(=O)CC2(NC(=O)c3cc(-c4ccc(F)cc4F)on3)CN([C@H]3CC[C@@](C)(O)CC3)C2)c1` [Example 1.200]: 0.005 to 0.1 µM; `COc1ccnc(C(C)(C)NC(=O)CC2(NC(=O)c3cc(-c4ccc(F)cc4F)on3)CN([C@H]3CC[C@](C)(O)CC3)C2)c1` [Example 1.201]: under 0.005 µM.

For the compound `Cc1ccnc(C(C)(C)NC(=O)CC2(NC(=O)c3cc(-c4ccc(F)cc4F)on3)CN([C@H]3CC[C@](C)(O)CC3)C2)n1` [Example 1.202], the IC50 was under 0.005 µM. `COc1cccc(C(C)(C)NC(=O)CC2(NC(=O)c3cc(-c4ccc(F)cc4F)on3)CN([C@H]3CC[C@@](C)(O)CC3)C2)n1` [Example 1.203] registered an IC50 of under 0.005 µM. Next, `COc1cccc(C(C)(C)NC(=O)CC2(NC(=O)c3cc(-c4ccc(F)cc4F)on3)CN([C@H]3CC[C@](C)(O)CC3)C2)n1` [Example 1.204]: under 0.005 µM. The result for `COc1ccc(F)c(C(C)(C)NC(=O)CC2(NC(=O)c3cc(-c4ccc(F)cc4F)on3)CN([C@H]3CC[C@@](C)(O)CC3)C2)c1` [Example 1.205] reads 0.005 to 0.1 µM; that for `COc1ccc(F)c(C(C)(C)NC(=O)CC2(NC(=O)c3cc(-c4ccc(F)cc4F)on3)CN([C@H]3CC[C@](C)(O)CC3)C2)c1` [Example 1.206], 0.005 to 0.1 µM. Next, `CC(C)(NC(=O)CC1(NC(=O)c2cc(-c3ccc(F)cc3F)on2)CN([C@H]2CC[C@@](C)(O)CC2)C1)c1ccc(F)cn1` [Example 1.207]: 0.1 to 1 µM.

Turning to `CCc1cccc(C(C)(C)NC(=O)CC2(NC(=O)c3cc(-c4ccc(F)cc4F)on3)CN([C@H]3CC[C@@](C)(O)CC3)C2)c1` [Example 1.208], the IC50 is under 0.005 µM.

The compound `CCc1cccc(C(C)(C)NC(=O)CC2(NC(=O)c3cc(-c4ccc(F)cc4F)on3)CN([C@H]3CC[C@](C)(O)CC3)C2)c1` [Example 1.209] yielded an IC50 of 0.005 to 0.1 µM.

Compound `Cc1cc(C(C)(C)NC(=O)CC2(NC(=O)c3cc(-c4ccc(F)cc4F)on3)CN([C@H]3CC[C@@](C)(O)CC3)C2)ccn1` [Example 1.210] came in with an IC50 of under 0.005 µM. The result for `Cc1cc(C(C)(C)NC(=O)CC2(NC(=O)c3cc(-c4ccc(F)cc4F)on3)CN([C@H]3CC[C@](C)(O)CC3)C2)ccn1` [Example 1.211] reads under 0.005 µM; that for `COc1ccc(C(C)(C)NC(=O)CC2(NC(=O)c3cc(-c4ccc(F)cc4F)on3)CN([C@H]3CC[C@@](C)(O)CC3)C2)c(F)c1` [Example 1.212], 0.005 to 0.1 µM. Next, `COc1ccc(C(C)(C)NC(=O)CC2(NC(=O)c3cc(-c4ccc(F)cc4F)on3)CN([C@H]3CC[C@](C)(O)CC3)C2)c(F)c1` [Example 1.213]: 0.1 to 1 µM. The result for `Cc1cccc(C(C)(C)NC(=O)CC2(NC(=O)c3cc(-c4ccc(F)cc4F)on3)CN([C@H]3CC[C@@](C)(O)CC3)C2)c1` [Example 1.214] reads under 0.005 µM; that for `Cc1ccccc1C(C)(C)NC(=O)CC1(NC(=O)c2cc(-c3ccc(F)cc3F)on2)CN([C@H]2CC[C@](C)(O)CC2)C1` [Example 1.215], under 0.005 µM. On to `CC1(CN2CC(CC(=O)NC(C)(C)c3cccc(Cl)c3)(NC(=O)c3cc(-c4ccc(F)cc4F)on3)C2)COC1` [Example 1.216], for which the IC50 is under 0.005 µM. The result for `Cc1cccc(C(C)(C)NC(=O)CC2(NC(=O)c3cc(-c4ccc(F)cc4F)on3)CN(CC3(C)COC3)C2)n1` [Example 1.217] reads 0.005 to 0.1 µM; that for `CC(C)(NC(=O)CC1(NC(=O)c2cc(-c3ccc(F)cc3F)on2)CN([C@H]2CC[C@@](C)(O)CC2)C1)c1ccccc1Cl` [Example 1.218], under 0.005 µM. The result for `CC(C)(NC(=O)CC1(NC(=O)c2cc(-c3ccc(F)cc3F)on2)CN([C@H]2CC[C@](C)(O)CC2)C1)c1ccccc1Cl` [Example 1.219] reads under 0.005 µM; that for `CC(C)(NC(=O)CC1(NC(=O)c2cc(-c3ccc(F)cc3F)on2)CN([C@H]2CC[C@@](C)(O)CC2)C1)c1cccc(Cl)c1` [Example 1.220], under 0.005 µM; that for `CC(C)(NC(=O)CC1(NC(=O)c2cc(-c3ccc(F)cc3F)on2)CN([C@H]2CC[C@](C)(O)CC2)C1)c1cccc(Cl)c1` [Example 1.221], under 0.005 µM. Turning to `CC(C)(NC(=O)CC1(NC(=O)c2cc(-c3ccc(F)cc3F)on2)CN(CC2CCOCC2)C1)c1ccccn1` [Example 1.222], the IC50 lay within 0.1 to 1 µM.

Compound `CC(C)(NC(=O)CC1(NC(=O)c2cc(-c3ccc(F)cc3F)on2)CN(CC2CCOC2)C1)c1ccccn1` (centres unmarked) [Example 1.223] yielded an IC50 of 0.1 to 1 µM. Next, `CC1(CN2CC(CC(=O)NC(C)(C)c3ccccn3)(NC(=O)c3cc(-c4ccc(F)cc4F)on3)C2)COC1` [Example 1.224]: 0.005 to 0.1 µM; `Cc1cccc(C(C)(C)NC(=O)CC2(NC(=O)c3cc(-c4ccc(F)cc4F)on3)CN([C@H]3CC[C@@](C)(O)CC3)C2)n1` [Example 1.225]: under 0.005 µM; `Cc1cccc(C(C)(C)NC(=O)CC2(NC(=O)c3cc(-c4ccc(F)cc4F)on3)CN(C3CCC4(CC3)COC4)C2)n1` [Example 1.226]: 0.005 to 0.1 µM. Next, `CC(C)(NC(=O)CC1(NC(=O)c2cc(-c3ccc(F)cc3F)on2)CN([C@H]2CC[C@@](C)(O)CC2)C1)c1ccccc1F` [Example 1.227]: under 0.005 µM; `CC(C)(NC(=O)CC1(NC(=O)c2cc(-c3ccc(F)cc3F)on2)CN([C@H]2CC[C@](C)(O)CC2)C1)c1ccccc1F` [Example 1.228]: under 0.005 µM. Consider `CC(C)(O)CCN1CC(CC(=O)NC(C)(C)c2cccc(F)c2)(NC(=O)c2cc(-c3ccc(F)cc3F)on2)C1` [Example 1.229], for which the IC50 lay in the range of 0.005 to 0.1 µM. Next, `CC(C)(O)CCN1CC(CC(=O)NC(C)(C)c2ccccn2)(NC(=O)c2cc(-c3ccc(F)cc3F)on2)C1` [Example 1.230]: 1 to 20 µM; `CC(C)(O)CN1CC(CC(=O)NC(C)(C)c2ncccn2)(NC(=O)c2cc(-c3ccc(F)cc3F)on2)C1` [Example 1.231]: 0.1 to 1 µM; `CC(C)(NC(=O)CC1(NC(=O)c2cc(-c3ccc(F)cc3F)on2)CN([C@H]2CC[C@@](C)(O)CC2)C1)c1ncccn1` [Example 1.232]: under 0.005 µM. Next, `CC(C)(NC(=O)CC1(NC(=O)c2cc(-c3ccc(F)cc3F)on2)CN([C@H]2CC[C@](C)(O)CC2)C1)c1ncccn1` [Example 1.233]: under 0.005 µM; `CC(C)(NC(=O)CC1(NC(=O)c2cc(-c3ccc(F)cc3F)on2)CN(C2CCC3(CC2)COC3)C1)c1cccc(F)c1` [Example 1.234]: 0.005 to 0.1 µM; `CC(C)(NC(=O)CC1(NC(=O)c2cc(-c3ccc(F)cc3F)on2)CN([C@H]2CC[C@@](C)(O)CC2)C1)c1cc(F)ccc1F` [Example 1.235]: under 0.005 µM.

Compound `CC(C)(NC(=O)CC1(NC(=O)c2cc(-c3ccc(F)cc3F)on2)CN([C@H]2CC[C@](C)(O)CC2)C1)c1cc(F)ccc1F` [Example 1.236] registered an IC50 of under 0.005 µM. With `Cc1cccc(C(C)(C)NC(=O)CC2(NC(=O)c3cc(-c4ccc(F)cc4F)on3)CN([C@H]3CC[C@](C)(O)CC3)C2)c1` [Example 1.237], the IC50 is under 0.005 µM. Regarding `COc1cccc(C(C)(C)NC(=O)CC2(NC(=O)c3cc(-c4ccc(F)cc4F)on3)CN([C@H]3CC[C@@](C)(O)CC3)C2)c1` [Example 1.238], the IC50 lay within 0.005 to 0.1 µM. Next, `COc1cccc(C(C)(C)NC(=O)CC2(NC(=O)c3cc(-c4ccc(F)cc4F)on3)CN([C@H]3CC[C@](C)(O)CC3)C2)c1` [Example 1.239]: 0.005 to 0.1 µM; `Cc1cccc(C(C)(C)NC(=O)CC2(NC(=O)c3cc(-c4ccc(F)cc4F)on3)CN(CC(C)(C)O)C2)n1` [Example 1.240]: 0.005 to 0.1 µM; `COc1ccccc1C(C)(C)NC(=O)CC1(NC(=O)c2cc(-c3ccc(F)cc3F)on2)CN(C2CCC(C)(O)CC2)C1` (centres unmarked) [Example 1.241]: under 0.005 µM. The result for `Cc1ccc(C(C)(C)NC(=O)CC2(NC(=O)c3cc(-c4ccc(F)cc4F)on3)CN([C@H]3CC[C@@](C)(O)CC3)C2)cc1` [Example 1.242] reads 0.1 to 1 µM; that for `Cc1ccc(C(C)(C)NC(=O)CC2(NC(=O)c3cc(-c4ccc(F)cc4F)on3)CN([C@H]3CC[C@](C)(O)CC3)C2)cc1` [Example 1.243], 0.1 to 1 µM.

Compound `COc1ccc(C(C)(C)NC(=O)CC2(NC(=O)c3cc(-c4ccc(F)cc4F)on3)CN([C@H]3CC[C@](C)(O)CC3)C2)cc1` [Example 1.244] yielded an IC50 of 1 to 20 µM. Next, `Cc1nc(C(C)(C)NC(=O)CC2(NC(=O)c3cc(-c4ccc(F)cc4F)on3)CN(C3CCC4(CC3)COC4)C2)sc1C` [Example 1.245]: 0.1 to 1 µM; `Cc1ccc(C(C)(C)NC(=O)CC2(NC(=O)c3cc(-c4ccc(F)cc4F)on3)CN([C@H]3CC[C@@](C)(O)CC3)C2)c(F)c1` [Example 1.246]: 0.005 to 0.1 µM. `Cc1ccc(C(C)(C)NC(=O)CC2(NC(=O)c3cc(-c4ccc(F)cc4F)on3)CN([C@H]3CC[C@](C)(O)CC3)C2)c(F)c1` [Example 1.247]: the IC50 is 0.1 to 1 µM.

Broadly, the IC50 is the concentration that inhibits the measured activity by half.
